Laboratory results: US9962341B2, “Active pharmaceutical ingredient (API) comprising cannabinoids for use in the treatment of cancer” (GW Pharma Limited, priority 2014, dated 2018)
Read-outs that look alike come from different tables or passages of the source.

Assays:
Format in all cases: cell-based
A549 = assay: Cell viability (CellTiter-Blue, 72 h), A549 lung cancer cells; conditions: Homo sapiens
Method: (§1) The following cell lines were tested in this example: Lung Cancer (A549, NCI-H460); Pancreatic cancer (PANC1, Mia-Pa-Ca-2); Melanoma (WM115, A375); Ovarian cancer (OVCAR3, SKOV3); Gastric cancer (MKN45, HGC-27); Renal cancer (ACHN) and Bladder Cancer (RT112).
(§2) Each tumour cell line was maintained in vitro in RPMI 1640+10% heat inactivated FBS and 2 mM L-glutamine (growth media) at 37° C. in 5% CO2 and humidified conditions. The cells were harvested, washed, re-suspended into growth medium and counted. The cells were re-suspended into assay media (RPMI 1640+5% heat inactivated FBS+ and 2 mM L-glutamine) at 4×10^4 cells/ml (dependent upon cell type) and plated into the middle 240 wells of 384 well tissue culture plates (Corning CellBind, black-wall plates) 25 μl/well aliquots; 50 μl of growth media was aliquoted into the outer wells. There were 3 plates for each cell line.
(§3) The plates were incubated overnight at 37° C., in 5% humidified CO2.
(§4) The phytocannabinoid test compounds were prepared in 100% DMSO vehicle at a stock concentration of 20 and 40 mM.
(§5) Starting with the 20 mM stock in DMSO, this was serially diluted (2 fold) in DMSO in a 96-well plate, to 20 (no dilution), 10, 5, 2.5, 1.25, 0.625, 0.315, 0.157 and […]. Following this, 10 ul of each compound dilution was diluted into 990 ul of 1% (v/v) FBS media in a deep well block making the final concentrations of 200, 100, 50, 25, 12.5, 6.25, 3.125, 1.56 and 0.79 μM (2× final assay concentrations and 1% DMSO).
(§6) An equal volume of each cannabinoid in the combination (stock concentration 40 mM) was mixed together to make a stock of 20 mM of each cannabinoid in DMSO. This was serially diluted (2 fold) in DMSO in a 96-well plate, to 20 (no dilution), 10, 5, 2.5, 1.25, 0.625, 0.315, 0.157 and […]. Following this, 10 ul of each combination dilution was diluted into 990 ul of 1% (v/v) FBS media in a deep well block making the final concentrations of 200, 100, 50, 25, 12.5, 6.25, 3.125, 1.56 and 0.79 μM (2× final assay concentrations and 1% DMSO).
(§7) Taxotere SOC was prepared in 100% DMSO to give a stock concentration of 10 mM. This was diluted in DMSO from the stock solution to 200 μM, then serially diluted (3-fold) in DMSO to 200 (no dilution), 66.66, 22.22, 7.41, 2.47, 0.82, 0.27, 0.09, 0.03 μM. 10 ul of each of the taxotere dilutions was diluted in 990 ul of 1% (v/v) FBS media making the final concentrations of 2, 0.67, 0.22, 0.074, 0.0247, 0.0082, 0.0027 0.0009, 0.0003 μM (2× final assay concentrations and 1% DMSO).
(§8) The plates were incubated for 72 h at 37° C. in 5% humidified CO2. To develop the plates, at 72 h, 10 μl of CellTiter-Blue™ reagent was added to each test/blank well.
(§9) The plates were incubated at 37° C., 5% humidified CO2. Fluorescence was measured using a Flex II Station plate reader (570 nm excitation wavelength, 600 nm emission wavelength, 590 nm cut-off) after 3 h.
(§10) The phytocannabinoid compounds CBD, CBGA, CBG, CBDA, THCV and THC were tested on a panel of lung (A549, NCI-H460), pancreatic (PANC1, Mia-Pa-Ca-2), melanoma (WM115, A375), ovarian (OVCAR3, SKOV3), gastric (MKN45, HGC-27), renal (ACHN) and bladder (RT112) cancer cell lines according to the protocol for 72 h in media containing 1% FBS.
(§11) The IC50 values for each phytocannabinoid and combination of CBD with the other phytocannabinoids was calculated for each cell line. The raw data values expressed in relative fluorescent units were normalised to the vehicle for each individual plate and any reduction in fluorescence indicated a decrease in viability.
(§12) This calculation was as described in Example 1 above.

Mia-Pa-Ca-2 = assay: Cell viability (CellTiter-Blue, 72 h), Mia-Pa-Ca-2 pancreatic cancer cells; conditions: Homo sapiens
Method: as §1, §2, §3, §4, §5, §6
Gemcitabine SOC was prepared in 100% DMSO to give a stock concentration of 20 mM. This was then serially diluted (3 fold) in DMSO in a 96-well plate, to 20 (no dilution), 6.6, 2.2, 0.741, 0.247, 0.082, 0.027, 0.009 and 0.003 mM. Following this, 10 ul of each dilution was further diluted into 990 ul of 1% (v/v) FBS media making the final concentrations of 200 (no dilution), 66.66, 22.22, 7.41, 2.47, 0.82, 0.27, 0.09, 0.03 μM (2× final assay concentrations and 1% DMSO).
as §8, §9, §10, §11, §12

OVCAR3 = assay: Cell viability (CellTiter-Blue, 72 h), OVCAR3 ovarian cancer cells; conditions: Homo sapiens, OVCAR-3
Method: as §1, §2, §3, §4, §5, §6
(§13) Cisplatin (stock of 1 mg/ml=3.33 mM in water) was diluted in 1% FBS media to give a stock concentration of 1 mM. This was then diluted in 1% FBS media from the stock solution to 200 μM, then serially diluted (3-fold) in 1% FBS media to 200 (no dilution), 66.66, 22.22, 7.41, 2.47, 0.82, 0.27, 0.09, 0.03 μM (2× final assay concentrations; no DMSO).
as §8, §9, §10, §11, §12

SKOV3 = assay: Cell viability (CellTiter-Blue, 72 h), SKOV3 ovarian cancer cells; conditions: Homo sapiens, SK-OV-3
Method: as §1, §2, §3, §4, §5, §6, §13, §8, §9, §10, §11, §12

HGC-27 = assay: Cell viability (CellTiter-Blue, 72 h), HGC-27 gastric cancer cells; conditions: Homo sapiens
Method: as §1, §2, §3, §4, §5, §6, §13, §8, §9, §10, §11, §12

ACHN = assay: Cell viability (CellTiter-Blue, 72 h), ACHN renal cancer cells; conditions: Homo sapiens
Method: as §1, §2, §3, §4, §5, §6, §7, §8, §9, §10, §11, §12

[1] = A549, 72 h, read-out: Cell line IC50 value
[2] = A549, read-out: Dm (median effect dose)
[3] = MIA PaCa-2, 72 h, read-out: Cell line IC50 value
[4] = MIA PaCa-2, read-out: Dm (median effect dose)
[5] = OVCAR3, 1% FBS, 72 h, read-out: Cell line IC50 value
[6] = OVCAR3 cells, 1% FBS, read-out: Dm (potency, median effect)
[7] = SKOV3, 1% FBS, 72 h, read-out: Cell line IC50 value
[8] = SKOV3 cells, 1% FBS, read-out: Dm (potency, median effect)
[9] = HGC-27, HGC27 cells, 1% FBS, read-out: Dm (potency, median effect)
[10] = HGC-27, 1% FBS, 72 h, read-out: Cell line IC50 value
[11] = 72 h, read-out: Cell line IC50 value
[12] = read-out: Dm (potency, median effect)

## C=C(C)[C@@H]1CCC(C)=C[C@H]1c1c(O)cc(CCCCC)cc1O [CBD, Cannabidiol]
A549; [1]
  IC50: 3.2 µM
A549; [2]
  IC50: 2.87 µM
Mia-Pa-Ca-2; [3]
  IC50: 2.6 µM
Mia-Pa-Ca-2; [4]
  IC50: 2 µM
OVCAR3; [5]
  IC50: 2.8 µM
OVCAR3; [6]
  IC50: 2.14 µM
SKOV3; [7]
  IC50: 3.1 µM
SKOV3; [8]
  IC50: 3.17 µM
HGC-27; [9]
  IC50: 1.72 µM
HGC-27; [10]
  IC50: 1.5 µM
ACHN; [11]
  IC50: 3.3 µM
ACHN; [12]
  IC50: 3.11 µM

## C=C(C)[C@@H]1CCC(C)=C[C@H]1c1c(O)cc(CCCCC)c(C(=O)O)c1O [CBDA, Cannabidiolic acid]
A549; [1]
  IC50: 8.5 µM
A549; [2]
  IC50: 7.6 µM
Mia-Pa-Ca-2; [3]
  IC50: 7.9 µM
Mia-Pa-Ca-2; [4]
  IC50: 7.09 µM
OVCAR3; [5]
  IC50: 6.7 µM
OVCAR3; [6]
  IC50: 5.51 µM
SKOV3; [7]
  IC50: 1.3 µM
SKOV3; [8]
  IC50: 10.6 µM
HGC-27; [9]
  IC50: 10.4 µM
HGC-27; [10]
  IC50: 1.3 µM
ACHN; [11]
  IC50: 10.7 µM
ACHN; [12]
  IC50: 8.44 µM

## CCCCCc1cc(O)c(C/C=C(\C)CCC=C(C)C)c(O)c1 [CBG, Cannabigerol]
A549; [1]
  IC50: 4.3 µM
A549; [2]
  IC50: 4.23 µM
Mia-Pa-Ca-2; [3]
  IC50: 2.2 µM
Mia-Pa-Ca-2; [4]
  IC50: 2.06 µM
OVCAR3; [5]
  IC50: 5.3 µM
OVCAR3; [6]
  IC50: 4.33 µM
SKOV3; [7]
  IC50: 5.5 µM
SKOV3; [8]
  IC50: 4.75 µM
HGC-27; [9]
  IC50: 1.73 µM
HGC-27; [10]
  IC50: 1.6 µM
ACHN; [11]
  IC50: 3 µM
ACHN; [12]
  IC50: 2.96 µM

## CCCCCc1cc(O)c(C/C=C(\C)CCC=C(C)C)c(O)c1C(=O)O [CBGA, Cannabigerolic acid]
A549; [1]
  IC50: 6.1 µM
A549; [2]
  IC50: 6.89 µM
Mia-Pa-Ca-2; [3]
  IC50: 8.9 µM
Mia-Pa-Ca-2; [4]
  IC50: 8.67 µM
OVCAR3; [5]
  IC50: 6.1 µM
OVCAR3; [6]
  IC50: 6.41 µM
SKOV3; [7]
  IC50: 7.9 µM
SKOV3; [8]
  IC50: 8.64 µM
HGC-27; [9]
  IC50: 5.47 µM
HGC-27; [10]
  IC50: 7.8 µM
ACHN; [11]
  IC50: 11.6 µM
ACHN; [12]
  IC50: 12 µM

## CCCCCc1cc(O)c2c(c1)OC(C)(C)[C@@H]1CCC(C)=C[C@@H]21 [THC, Tetrahydrocannabinol, reference compound]
A549; [1]
  IC50: 5.5 µM
A549; [2]
  IC50: 4.08 µM
Mia-Pa-Ca-2; [3]
  IC50: 2.9 µM
Mia-Pa-Ca-2; [4]
  IC50: 2.64 µM
OVCAR3; [5]
  IC50: 5.9 µM
OVCAR3; [6]
  IC50: 4.42 µM
SKOV3; [7]
  IC50: 5.3 µM
SKOV3; [8]
  IC50: 4.56 µM
HGC-27; [9]
  IC50: 2.74 µM
HGC-27; [10]
  IC50: 2.8 µM
ACHN; [11]
  IC50: 3.6 µM
ACHN; [12]
  IC50: 4.4 µM

## CCCc1cc(O)c2c(c1)OC(C)(C)[C@@H]1CCC(C)=C[C@@H]21 [THCV, Tetrahydrocannabivarin]
A549; [1]
  IC50: 7.4 µM
A549; [2]
  IC50: 6.59 µM
Mia-Pa-Ca-2; [3]
  IC50: 5.2 µM
Mia-Pa-Ca-2; [4]
  IC50: 4.79 µM
OVCAR3; [5]
  IC50: 6.5 µM
OVCAR3; [6]
  IC50: 6.51 µM
SKOV3; [7]
  IC50: 6.5 µM
SKOV3; [8]
  IC50: 6.58 µM
HGC-27; [9]
  IC50: 3.06 µM
HGC-27; [10]
  IC50: 4.1 µM
ACHN; [11]
  IC50: 6.8 µM
ACHN; [12]
  IC50: 6.76 µM

## CC(=O)O[C@@]12CO[C@@H]1C[C@H](O)[C@@]1(C)C(=O)[C@H](O)C3=C(C)[C@@H](OC(=O)[C@H](O)[C@@H](NC(=O)OC(C)(C)C)c4ccccc4)C[C@@](O)([C@@H](OC(=O)c4ccccc4)[C@H]21)C3(C)C [Taxotere, Docetaxel, reference compound]
A549; [1]
  IC50: 0.0006 µM
ACHN; [11]
  IC50: 0.0018 µM
